Data as given in article PMC11882969 (Nature Communications, 2025).
Where two headings read alike, the source gives them in different places.

How the values were obtained:
CB1 (rCB1) [1] = biological target: T1, CB1 (rCB1) (Rattus norvegicus, UniProt P20272); test: Radioligand competition binding, [3H]-CP-55,940, rat brain membranes
hCB1 = hCB1 (Homo sapiens, UniProt P21554); test: bioSensAll ebBRET signaling profiling, hCB1; type: cell-based; design: host or cells: HEK293SL cells, transient PEI transfection; details: for Barr2+GRK2 hCB1 response: Barr2+GRK2 biosensor; for Gi1 hCB1 / GoB hCB1: single replicate values, FigS6a; for EC50: read-out: EC50 [95% CI]; for Emax: normalized to CP-55,940
CB1 (rCB1) [2] = biological target: T1, CB1 (rCB1); test: Single-point radioligand displacement screen; type: binding; details: 10 µM, 1 µM or 300 nM by cell colour (not visible)

Chain of hCB1 (P21554 whole entry): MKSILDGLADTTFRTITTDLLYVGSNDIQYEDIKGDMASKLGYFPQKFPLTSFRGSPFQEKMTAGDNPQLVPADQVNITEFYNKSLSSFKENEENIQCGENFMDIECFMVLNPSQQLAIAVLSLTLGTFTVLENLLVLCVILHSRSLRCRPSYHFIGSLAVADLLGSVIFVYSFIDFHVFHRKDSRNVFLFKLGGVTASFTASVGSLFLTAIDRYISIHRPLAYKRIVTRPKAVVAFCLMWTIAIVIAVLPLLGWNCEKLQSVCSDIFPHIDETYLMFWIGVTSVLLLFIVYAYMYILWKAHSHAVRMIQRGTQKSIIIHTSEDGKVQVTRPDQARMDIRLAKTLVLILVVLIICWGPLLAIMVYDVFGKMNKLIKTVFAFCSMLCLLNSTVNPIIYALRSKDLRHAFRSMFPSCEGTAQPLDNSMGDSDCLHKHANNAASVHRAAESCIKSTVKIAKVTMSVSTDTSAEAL
T1 sequence (P20272 whole entry): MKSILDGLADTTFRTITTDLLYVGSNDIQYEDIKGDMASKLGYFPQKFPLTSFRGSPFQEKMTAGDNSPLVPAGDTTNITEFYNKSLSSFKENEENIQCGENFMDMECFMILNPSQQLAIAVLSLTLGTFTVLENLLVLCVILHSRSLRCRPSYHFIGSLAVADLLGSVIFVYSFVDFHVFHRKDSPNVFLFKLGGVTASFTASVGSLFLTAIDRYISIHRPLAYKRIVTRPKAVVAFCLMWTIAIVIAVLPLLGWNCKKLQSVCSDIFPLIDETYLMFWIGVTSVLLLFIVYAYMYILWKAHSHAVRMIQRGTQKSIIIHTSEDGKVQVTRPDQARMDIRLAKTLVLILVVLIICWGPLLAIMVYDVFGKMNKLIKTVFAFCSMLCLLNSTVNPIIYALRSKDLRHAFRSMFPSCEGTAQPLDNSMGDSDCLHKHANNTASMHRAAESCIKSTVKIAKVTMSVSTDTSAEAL

With `Cc1nn(Cc2ccc(Cl)cc2)c(C)c1C(=O)OCC1CSc2ccccc2O1` (centres unmarked) [‘5463] the “pKi [95% CI]” value (CB1 (rCB1) [1]; rCB1) was 6.1 [5.8 – 6.4], the Ki (CB1 (rCB1) [1]; read-out: Ki [95% CI], rCB1, [3H]-CP-55,940) was 0.825 µM and the “Barr2+GRK2 hCB1 response” value (hCB1; Log [Compound] (M) -4.22186) was -7.036. For the same compound, the “Barr2+GRK2 hCB1 response” value (hCB1; Log [Compound] (M) -4.63927) was -40.2196, the “Barr2+GRK2 hCB1 response” value (hCB1; Log [Compound] (M) -5.05788) was -35.4335 and the “Barr2+GRK2 hCB1 response” value (hCB1; Log [Compound] (M) -5.47381) was -41.4959. The “Barr2+GRK2 hCB1 response” value (hCB1; Log [Compound] (M) -5.89285) was -45.6439, the “Barr2+GRK2 hCB1 response” value (hCB1; Log [Compound] (M) -6.31878) was -47.8774 and the “Barr2+GRK2 hCB1 response” value (hCB1; Log [Compound] (M) -6.72585) was -53.9398. For the same compound, the “Barr2+GRK2 hCB1 response” value (hCB1; Log [Compound] (M) -7.14267) was -43.7294, the “Barr2+GRK2 hCB1 response” value (hCB1; Log [Compound] (M) -7.55284) was -45.9629 and the “Barr2+GRK2 hCB1 response” value (hCB1; Log [Compound] (M) -8) was -54.2588. For the same compound, the “Barr2+GRK2 hCB1 response” value (hCB1; Log [Compound] (M) -8.22186) was -7.036, the “Barr2+GRK2 hCB1 response” value (hCB1; Log [Compound] (M) -8.39794) was -23.3088 and the “Barr2+GRK2 hCB1 response” value (hCB1; Log [Compound] (M) -8.68787) was -41.1769. For the same compound, the “Barr2+GRK2 hCB1 response” value (hCB1; Log [Compound] (M) -9.15521) was -53.6207, the “Barr2+GRK2 hCB1 response” value (hCB1; Log [Compound] (M) -9.61989) was -38.9433 and the “Barr2+GRK2 hCB1 response” value (hCB1; Log [Compound] (M) -10.0969) was -52.3444. For the same compound, the “Barr2+GRK2 hCB1 response” value (hCB1; Log [Compound] (M) -10.5529) was -37.0289, the “Barr2+GRK2 hCB1 response” value (hCB1; Log [Compound] (M) -11.0177) was -49.4727 and the “Barr2+GRK2 hCB1 response” value (hCB1; Log [Compound] (M) -11.4949) was -43.0913. For the same compound, the “Barr2+GRK2 hCB1 response” value (hCB1; Log [Compound] (M) -11.9208) was -24.266, the “Barr2+GRK2 hCB1 response” value (hCB1; Log [Compound] (M) -12.3979) was -7.993 and the “Barr2+GRK2 hCB1 response” value (hCB1; Log [Compound] (M) -12.8861) was -18.5227. For the same compound, the “Barr2+GRK2 hCB1 response” value (hCB1; Log [Compound] (M) -13.3979) was 10.832, the “Gi1 hCB1” value (hCB1; Log [Compound] (M) -4.22186) was 28.0981 and the “GoB hCB1” value (hCB1; Log [Compound] (M) -4.22186) was 24.5257. The “Gi1 hCB1” value (hCB1; Log [Compound] (M) -4.63927) was 21.0665, the “GoB hCB1” value (hCB1; Log [Compound] (M) -4.63927) was 14.8206 and the “Gi1 hCB1” value (hCB1; Log [Compound] (M) -5.05788) was 16.6796. The “GoB hCB1” value (hCB1; Log [Compound] (M) -5.05788) was 10.4802, the “Gi1 hCB1” value (hCB1; Log [Compound] (M) -5.47381) was 14.3358 and the “GoB hCB1” value (hCB1; Log [Compound] (M) -5.47381) was 11.0879. The “Gi1 hCB1” value (hCB1; Log [Compound] (M) -5.89285) was 7.716, the “GoB hCB1” value (hCB1; Log [Compound] (M) -5.89285) was 6.331 and the “Gi1 hCB1” value (hCB1; Log [Compound] (M) -6.31878) was 3.392. For the same compound, the “GoB hCB1” value (hCB1; Log [Compound] (M) -6.31878) was 2.3203, the “Gi1 hCB1” value (hCB1; Log [Compound] (M) -6.72585) was -0.6618 and the “GoB hCB1” value (hCB1; Log [Compound] (M) -6.72585) was -6.013. For the same compound, the “Gi1 hCB1” value (hCB1; Log [Compound] (M) -7.14267) was -2.705, the “GoB hCB1” value (hCB1; Log [Compound] (M) -7.14267) was -6.777 and the “Gi1 hCB1” value (hCB1; Log [Compound] (M) -7.55284) was -2.958. For the same compound, the “GoB hCB1” value (hCB1; Log [Compound] (M) -7.55284) was -3.8083, the “Gi1 hCB1” value (hCB1; Log [Compound] (M) -8) was -2.752 and the “GoB hCB1” value (hCB1; Log [Compound] (M) -8) was -8.791. For the same compound, the “Gi1 hCB1” value (hCB1; Log [Compound] (M) -8.22186) was 6.512, the “GoB hCB1” value (hCB1; Log [Compound] (M) -8.22186) was 0.4626 and the “Gi1 hCB1” value (hCB1; Log [Compound] (M) -8.39794) was -3.021. The “GoB hCB1” value (hCB1; Log [Compound] (M) -8.39794) was -7.2806, the “Gi1 hCB1” value (hCB1; Log [Compound] (M) -8.68787) was 0.4468 and the “GoB hCB1” value (hCB1; Log [Compound] (M) -8.68787) was -0.5617. For the same compound, the “Gi1 hCB1” value (hCB1; Log [Compound] (M) -9.15521) was -1.422, the “GoB hCB1” value (hCB1; Log [Compound] (M) -9.15521) was -2.124 and the “Gi1 hCB1” value (hCB1; Log [Compound] (M) -9.61989) was -0.7093. The “GoB hCB1” value (hCB1; Log [Compound] (M) -9.61989) was -5.475, the “Gi1 hCB1” value (hCB1; Log [Compound] (M) -10.0969) was -1.0102 and the “GoB hCB1” value (hCB1; Log [Compound] (M) -10.0969) was -3.201. The “Gi1 hCB1” value (hCB1; Log [Compound] (M) -10.5529) was -0.3926, the “GoB hCB1” value (hCB1; Log [Compound] (M) -10.5529) was -3.652 and the “Gi1 hCB1” value (hCB1; Log [Compound] (M) -11.0177) was -0.8518. For the same compound, the “GoB hCB1” value (hCB1; Log [Compound] (M) -11.0177) was -4.381, the “Gi1 hCB1” value (hCB1; Log [Compound] (M) -11.4949) was -1.279 and the “GoB hCB1” value (hCB1; Log [Compound] (M) -11.4949) was -3.965. The “Gi1 hCB1” value (hCB1; Log [Compound] (M) -11.9208) was -2.99, the “GoB hCB1” value (hCB1; Log [Compound] (M) -11.9208) was -2.853 and the “Gi1 hCB1” value (hCB1; Log [Compound] (M) -12.3979) was -0.25. The “GoB hCB1” value (hCB1; Log [Compound] (M) -12.3979) was -4.034, the “Gi1 hCB1” value (hCB1; Log [Compound] (M) -12.8861) was -2.879 and the “GoB hCB1” value (hCB1; Log [Compound] (M) -12.8861) was -4.451. For the same compound, the “Gi1 hCB1” value (hCB1; Log [Compound] (M) -13) was -0.7885, the “GoB hCB1” value (hCB1; Log [Compound] (M) -13) was -4.468 and the “Gi1 hCB1” value (hCB1; Log [Compound] (M) cell empty) was 0.7319. For the same compound, the “GoB hCB1” value (hCB1; Log [Compound] (M) cell empty) was -2.437, the “pEC50 [95% CI]” value (hCB1; hCB1 Gi1) was 5.3 [3.4 – 5.8] and the “pEC50 [95% CI]” value (hCB1; hCB1 GoB) was 5.1 [6.0]. The EC50 (hCB1; hCB1 Gi1) was 4.94 µM, the EC50 (hCB1; hCB1 GoB) was 7.47 µM and the Emax (hCB1; read-out: Emax [95% CI], hCB1 Gi1) was 31%. The Emax (hCB1; read-out: Emax [95% CI], hCB1 GoB) was 32% and the “% 1H-CP-55,940 displacement (mean) from single point screen” value (CB1 (rCB1) [2]) was 81.83%.
